Values of other authors, collected in patent EP2933251A1, “PHARMACEUTICAL COMPOSITION USABLE FOR THE TREATMENT OF A PATHOLOGY OF THE FOOT OF A HOOFED MAMMAL” (Weyts, Peter, priority 2014, dated 2015).

System: vaisseaux sanguins du sabot du cheval
Conditions: as stated in WO 2006/100468 A1

Compound: CC(=O)N[C@@H](CS)C(=O)O [N-acétylcystéine]
- contraction des vaisseaux sanguins du sabot du cheval: permet de réduire la contraction des vaisseaux sanguins du sabot du cheval
